The source of these data is US20140066438A1, “DOPAMINE RECEPTOR D2 ANTAGONIST FOR PREVENTION AND TREATMENT OF FLAVIVIRUS INFECTION” (Academia Sinica, priority 2012, published 2014).

The subject of data set [1] is DENV-2. Nature of the data set: Virus binding assay (confocal microscopy, plaque-forming assay of cell-bound virus).
The subject of data set [2] is HCV. The following applies: cell-based screening; cited from earlier work.
For data set [3], the system named is DENV-2 replicon. Nature of the data set: DENV-2 replicon dual luciferase assay. Format: cell-based, Dengue virus serotype 2. The following applies: HEK293T, PCZ 10 μM applied 5 h post-transfection. The procedure:
DENV-2 replicon was constructed to contain the SP6 promoter upstream of a Renilla luciferase gene flanked by the DENV 5′ UTR plus a portion of the core gene in the 5′ end; portions of the envelope gene, full length of non-structural genes and 3′ UTR in the 3′ end. In vitro transcription was performed to generate the replicon RNA. HEK293T cells were co-transfected with replicon RNA and control firefly luciferase RNA. PCZ (10 μM) was applied to the transfected cells at 5 h post-transfection. Cells were then harvested at the indicated times for dual luciferase assays. Data are mean and SD of relative renilla luciferase to firefly luciferase from two independent experiments.
Background: Replicon systems follow genome replication, usually without infectious particles.

For data set [4], the system named is DENV-2 NGC-N strain. Nature of the data set: Animal study: DENV-2 challenge of Stat1-deficient mice. Format: in vivo. Conditions: oral administration at 5 μg/gram body weight daily. The procedure: Stat1^−/− mice were challenged with 5×10^4 PFU/mouse of DENV-2 NGC-N strain. The protective effect of PCZ dimaleate (A) and PCZ dimethanesulfonate (Novamin Injection) (B) were tested with immediate and 6-h delay treatment. (A) The mice received phosphate buffered saline (PBS; vehicle control, n=10), 5 mg (n=8) or 1 mg (n=8) PCZ-dimaleate/kg body weight/i.p. at the time of infection (immediate treatment), or 5 mg PCZ-dimaleate/kg body weight/i.p. at 6 h post-infection (6-h delay treatment, n=8). Mice received follow-up treatment with PBS (vehicle control) or half the dose of PCZ-dimaleate orally every 12 h until day-10 post infection. […] The days with treatment are marked by arrows. Mice survival was checked daily and the data are presented as percentage of survival.
The mouse experiments were approved and performed in accordance with the guidelines of the Academia Sinica Institutional Animal Care and Utilization Committee. Groups of 5-week-old Stat1-deficient (SaT1^−/−) mice were challenged intraperitoneally (i.p.) with 5×10^4 plaque-forming units (PFU)/mouse of DENV-2 NGC-N strain and simultaneously injected with 30 μl PBS intracranially (i.c.) into the right hemisphere of the brain. To study the efficacy of PCZ-dimaleate administered mainly by an oral route, mice were divided into 4 groups for treatment: PBS (vehicle control); 5 or 1 mg of PCZ/kg body weight/i.p. at the time of infection (immediate treatment); or 5 mg of PCZ/kg body weight/i.p. at 6 h post-infection (6-h delay treatment). Thereafter, twice a day, mice received a half dose of the first treatment orally with PBS (vehicle control) or 2.5 or 0.5 mg of PCZ/kg body weight/oral/12 h up to day 10 post-infection. […] Thereafter, every 2 days, mice received PBS or the same dose of PCZ up to day 10 post-infection. The mice were checked daily for mortality.

For data set [5] the following is noted: mice, cited from earlier work.

Structures are written as SMILES. Like-named read-outs stand apart in the source and are kept apart here.

Consider `CN1CCN(CCCN2c3ccccc3Sc3ccc(Cl)cc32)CC1` [PCZ, prochlorperazine], for which, in data set [1] (A549 cells, MOI=5), the “DENV-2 binding quantified by plaque forming assay” value is “dose-dependently reduced”. Moreover, the “levels of DENV-2 bound to the cell surface (confocal imaging)” value in data set [1] (HEK293T, PCZ 1 h before and during virus adsorption at 4° C.) is “reduced the levels of DENV-2 bound to the cell surface”. The anti-HCV activity entry in data set [2] is recorded as “showed anti-HCV activity”. The “relative renilla luciferase to firefly luciferase (DENV-2 translation and RNA replication)” value in data set [3] is reported as “No significant difference”. Besides, in data set [4], the “protection of DENV-2 challenge mice” value was “completely protected”. For the same compound, the LD50 in data set [5] (i.p. injection) is listed as 191 mg/kg body weight; in data set [5] (oral route) it was 400 mg/kg body weight.
